Data published in the supplement of paper PMC10949913.

Columns and labels:
Test in all cases: area under concentration-response curve (viability) (AUC (a.u.)); higher = less active
Settings in all cases: 48 h
[1] = system: CU-ACC1
Method in brief: (§1)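 Three adrenocortical carcinoma cell lines were exposed for 48 h to library compounds at 11 concentrations in 1,536-well plates, then read by CellTiter-Glo luminescence. Signals were scaled per plate against vehicle and empty-well controls. From fitted concentration-response curves of inhibitory or non-responding classes alone, AC50 and area under the curve were obtained.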

[2] = system: CU-ACC2
Method in brief: as §1

[3] = system: NCI-H295R
Method in brief: as §1

Row | Structure (SMILES) | area under concentration-response curve [1] | area under concentration-response curve [2] | area under concentration-response curve [3]
1 | CCOC(=O)c1c(C)n(C)c2ccc(O)cc12 | 536 | 593 | 520
2 | COC(=O)Nc1nc2cc(C(=O)c3ccc(F)cc3)ccc2[nH]1 | 570 | 574 | 462
3 | Cn1cc(-c2ccc3nnc(C(F)(F)c4ccc5ncccc5c4)n3n2)cn1 | 478 | 583 | 502
4 | CCC(=O)O[C@@]1([C@H](C)C[C@H]2[C@@H]3C[C@H](F)\C4=C\C(=O)\C=C/[C@]4(C)[C@@]3(F)[C@@H](O)C[C@]12C)C(=O)SCF | 372 | 484 | 510
5 | C[C@]12CC[C@@H]3c4ccc(O)cc4C[C@@H](CCCCCCCCC[S+]([O-])CCCC(F)(F)C(F)(F)F)[C@H]3[C@@H]1CC[C@@H]2O (stereo partly specified) | 391 | 564 | 530
6 | CN(C)[C@H]\1[C@@H]2C[C@@H]\3CC4=C(C(=C(NC(=O)CNC(C)(C)C)C=C4N(C)C)O)C(=O)C3=C(O)/[C@@]2(O)C(=O)\C(=C1O)C(N)=O | 380 | 452 | 379
7 | C[C@@H]1CC2=C(C=C3OCOC3=C2)C(=N\N1C(C)=O)/C4=CC=C(N)C=C4 | 394 | 398 | 406
8 | CC[C@H](NC(C)C)[C@H](O)C1=CC=C(O)C2=C1\C=C/C(=O)N2 | 566 | 650 | 564
9 | CN(C(=O)CNC(=O)/C=C/c1cccc(Cl)c1)C1CC[S+](=O)([O-])CC1 (stereo unspecified) | 479 | 540 | 465
10 | COc1ccc(C2CNC(=O)C2)cc1OC1CCCC1 (stereo unspecified) | 451 | 538 | 501
11 | Cn1ncc2cc(-c3cnc(N)c(Cl)c3N3CCC4(CCNC4=O)CC3)ccc21 | 475 | 484 | 536
12 | CN[C@H](CC(C)C)C(=O)N[C@H]1C(=O)N[C@@H](CC(N)=O)C(=O)N[C@H]2C(=O)N[C@H]3C(=O)N[C@H](C(=O)N[C@H](C(=O)O)c4cc(O)cc(O)c4-c4cc3ccc4O)[C@H](O)c3ccc(c(Cl)c3)Oc3cc2cc(c3O[C@@H]2O[C@H](CO)[C@@H](O)[C@H](O)[C@H]2O[C@H]2C[C@](C)(N)[C@H](O)[C@H](C)O2)Oc2ccc(cc2Cl)[C@H]1O | 589 | 676 | 614
13 | COc1ccc(Cl)c(Nc2nc3ccccc3nc2N[S+](=O)([O-])c2cccc(NC(=O)C(C)(C)N)c2)c1 | 459 | 536 | 439
14 | O=C(O)c1ccccc1-c1ccc(/C=c2\sc3nc4cc(Br)cnc4n3c2=O)o1 | 491 | 457 | 549
15 | C[S+](=O)([O-])OCCCCO[S+](C)(=O)[O-] | 463 | 514 | 507
16 | O=C1NC(=O)/C(=C\c2ccc(-c3ccc(F)cc3)o2)S1 | 471 | 572 | 522

Row | Structure (SMILES) | area under concentration-response curve [1] | area under concentration-response curve [2] | area under concentration-response curve [3]
17 | CC\1=C(C(=O)N(\C=C1)C2=CC=C(C=C2)C3=NC=CO3)/C4=CC5=CN=C(N)N=C5C=C4 | 547 | 625 | 574
18 | CNC(=O)c1ccc(N2C(=S)N(c3ccc(C#N)c(C(F)(F)F)c3)C(=O)C23CCC3)cc1F | 488 | 500 | 534
19 | CC1(C)CCC(C)(C)c2cc(NC(=O)c3ccc(C(=O)O)cc3)ccc21 | 468 | 495 | 443
20 | Nc1ncnc2c1ncn2[C@@H]1O[C@H](CO)[C@@H](O)[C@@H]1O | 496 | 582 | 515
21 | NC(=O)c1ccc(-c2nc(-c3ccc4c(c3)OCO4)c(-c3ccccn3)[nH]2)cc1 | 286 | 633 | 509
22 | O=C1CCC(N2C(=O)c3ccccc3C2=O)C(=O)N1 (stereo unspecified) | 535 | 602 | 538
23 | Cc1nc(NC(=O)N2CCC[C@H]2C(N)=O)sc1-c1csc(C(C)(C)C)n1 | 414 | 445 | 377
24 | COc1cc([C@@H](CC(=O)O)c2ccc(C)c(CN3C[C@@H](C)Oc4ccccc4[S+]3(=O)[O-])c2)cc2nnn(C)c12 | 341 | 295 | 348
25 | C[C@@H]1O[C@@H](O[C@@H]2\C=C/C=C\C=C/C=C\C[C@H](C)OC(=O)/C=C\[C@H]3O[C@@H]3C[C@H](O)C[C@]3(O)C[C@@H](O)[C@@H](C(=O)O)[C@H](C2)O3)[C@H](O)[C@H](N)[C@@H]1O | 395 | 572 | 573
26 | CCn1c(-c2nonc2N)nc2cnc(Oc3cccc(NC(=O)c4ccc(OCCN5CCOCC5)cc4)c3)cc21 | 494 | 547 | 511
27 | COCC(=O)NC/C=C/c1ccc2ncnc(Nc3ccc(Oc4ccc(C)nc4)c(C)c3)c2c1 | 522 | 613 | 552
28 | OC1=CC2=C(C(=O)\C=C(/O2)C3=CC=CC=C3)C(=C1O)O | 458 | 462 | 489
29 | CN1C(=O)/C=C(/NCCN(CCO)CCCC2=CC=C(C=C2)[N+]([O-])=O)N(C)C1=O | 544 | 643 | 586
30 | CN[C@@H](C)C(=O)N[C@H](C(=O)N1CCC[C@H]1C(=O)Nc1sc(-c2ncco2)nc1-c1ccccc1)C1CCCCC1 | 457 | 530 | 461
31 | CC1=C(/C=C/C(C)=C/C=C/C(C)=C/C(=O)O)C(C)(C)CCC1 | 503 | 592 | 476
32 | CC(=O)N1c2ccc(-c3ccc(C(=O)O)cc3)cc2[C@H](Nc2ccc(Cl)cc2)C[C@@H]1C | 380 | 548 | 497
